According to US20100240642A1, “1H-Indole-2-Carboxylic Acid Derivatives Useful As PPAR Modulators” (SMITHKLINE BEECHAM CORPORATION, priority 2006, published 2010):

Key:
hPPARγ receptor = molecular target: T1, hPPARγ receptor (Homo sapiens, UniProt P37231); experiment: PPARγ Cell-based luciferase assay; settings: CV-1 cells transfected with GAL4-hPPARγ LBD and UAStkLuc; at concentrations of 10^−6 M or less; read-out: agonism of the hPPARγ receptor (activation relative to full agonist rosiglitazone)
T1 construct: expressed in transfected cells; host or cells: CV-1 (African Green Monkey kidney, ATCC CCL-70)
T1 sequence (P37231 172-475 isoform P37231-2): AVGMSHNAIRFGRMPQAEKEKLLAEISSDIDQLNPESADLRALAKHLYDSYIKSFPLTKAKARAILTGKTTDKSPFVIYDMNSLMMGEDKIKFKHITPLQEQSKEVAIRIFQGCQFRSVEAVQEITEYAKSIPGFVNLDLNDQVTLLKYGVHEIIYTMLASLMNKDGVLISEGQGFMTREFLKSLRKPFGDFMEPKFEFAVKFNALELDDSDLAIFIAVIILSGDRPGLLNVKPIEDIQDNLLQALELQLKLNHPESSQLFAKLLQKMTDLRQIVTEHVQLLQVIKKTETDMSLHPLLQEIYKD
Outline: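 CV-1 cells were transiently transfected with GAL4-DBD/human PPARγ LBD (172-475) and a UAS-tk-firefly luciferase reporter. Cells were plated at 10,000/well in 5% charcoal-stripped FBS medium onto 11-point, 3-fold compound dilutions and incubated overnight at 37 °C. Luminescence was read after Steady-Glo lysis, with activation scored relative to rosiglitazone as full agonist.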

[1] = system: Male Zucker Diabetic Fatty rats; experiment: In vivo evaluation: serum glucose in Zucker Diabetic Fatty rats; parameters: species or system rat; settings: 10 mg/kg once daily by oral gavage, 28 days, percent reduction from vehicle control at day 28 relative to normalization (140 mg/dL)
Procedure: Male Zucker Diabetic Fatty rats were lightly anesthetized with isofluorane gas and bleed by tail vein to obtain postprandial baseline concentrations for serum glucose, serum lipids and insulin. Animals were baseline matched by serum glucose and randomized into vehicle or treatment groups with compound administration by oral gavage beginning at 6.5 weeks of age. Selected compounds were administered once daily at 10 mg/kg in 25 mM N-Methyl-Glucamine with 5% w/v Solutol HS15. After 28 consecutive days of treatment, blood samples were obtained and analyzed for serum glucose. Values in Table 1 for % Glucose reduction represent a summary of the percent reduction from vehicle control animals at day 28 relative to normalization defined in this model as serum glucose levels of 140 mg/dL.

| Emax (hPPARγ receptor) [%] | Compound | % Glucose Reduction [1] [%] |
| --- | --- | --- |
| 20 to 80 | COc1cc(Cn2c(C(=O)O)c(-c3ccc(C(C)(C)C)cc3)c3ccccc32)cc(-c2ccc(C(=O)O)cc2)c1 [Example 18, 1-{[4′-carboxy-5-(methyloxy)-3-biphenylyl]methyl}-3-[4-(1,1-dimethylethyl)phenyl]-1H-indole-2-carboxylic acid] | 44 |
| 20 to 80 | CC(C)(C)c1ccc(-c2c(C(=O)O)n(Cc3cccc(-c4ccc(S(C)(=O)=O)cc4)c3)c3ccccc23)cc1 [Example 24, 3-[4-(1,1-dimethylethyl)phenyl]-1-{[4′-(methylsulfonyl)-3-biphenylyl]methyl}-1H-indole-2-carboxylic acid] | 79 |
| 20 to 80 | CC(C)(C)c1ccc(-c2c(C(=O)O)n(Cc3cc(OCCN4CCOCC4)cc(OCC4CC4)c3)c3ccccc23)cc1 [Example 42, 1-[(3-[(cyclopropylmethyl)oxy]-5-{[2-(4-morpholinyl)ethyl]oxy}phenyl)methyl]-3-[4-(1,1-dimethylethyl)phenyl]-1H-indole-2-carboxylic acid] | 82 |
| 20 to 80 | COCCOc1cc(Cn2c(C(=O)O)c(-c3ccc(C(C)(C)C)cc3)c3ccccc32)cc(N2CCOCC2)c1 [Example 68, 3-[4-(1,1-dimethylethyl)phenyl]-1-{[3-{[2-(methyloxy)ethyl]oxy}-5-(4-morpholinyl)phenyl]methyl}-1H-indole-2-carboxylic acid] | 95 |
